According to the supplement of paper PMC5908809:

Tests used:
[1] = test system: normal NK cells expanded with K562-aAPC; assay: percent inhibition of viability; higher = more inhibition; conditions: 72 h, IL-2 2.5 ng/mL
Procedure: (§1)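 Drug sensitivity and resistance testing on K562-aAPC-expanded normal NK cells: 5 concentrations (10-fold steps over a 10,000-fold range), 72 h at 37 °C, viability by CellTiter-Glo normalised to DMSO and benzethonium chloride controls; DSS from the fitted curve.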

[2] = test system: normal NK cells expanded with K562-aAPC; assay: drug sensitivity score (DSS) (DSS units); higher = more sensitive; extreme values may be limits of the assay; conditions: 72 h; IL-2 2.5 ng/mL
Procedure: as §1

DERL-7 (IL-2 2.5 ng/mL) [3] = assay: as above; conditions: 72 h
[4] = test system: normal primary NK cells, pool 1 (3 donors) (IL-2 2.5 ng/mL); assay: as above; conditions: 72 h
NKL (IL-2 2.5 ng/mL) [5] = assay: as above; conditions: 72 h
KAI3 (IL-2 2.5 ng/mL) [6] = assay: as above; conditions: 72 h
IMC-1 (IL-2 20 ng/mL) [7] = assay: as above; conditions: 72 h
[8] = test system: normal primary NK cells, pool 1 (3 donors), resting (IL-2 0 ng/mL); assay: as above; conditions: 72 h
SNK-6 (IL-2 2.5 ng/mL) [9] = assay: as above; conditions: 72 h
[10] = test system: normal primary NK cells, pool 2 (3 donors) (IL-2 2.5 ng/mL); assay: as above; conditions: 72 h
[11] = test system: normal primary NK cells, pool 3 (3 donors) (IL-2 2.5 ng/mL); assay: as above; conditions: 72 h
YT (IL-2 2.5 ng/mL) [12] = assay: as above; conditions: 72 h
KHYG-1 (IL-2 2.5 ng/mL) [13] = assay: as above; conditions: 72 h
NK-YS (IL-2 2.5 ng/mL) [14] = assay: as above; conditions: 72 h
NK-92 (IL-2 2.5 ng/mL) [15] = assay: as above; conditions: 72 h
DERL-7 (IL-2 2.5 ng/mL) [16] = assay: percent inhibition of viability; higher = more inhibition; conditions: 72 h
[17] = test system: normal primary NK cells, pool 1 (3 donors) (IL-2 2.5 ng/mL); assay: as above; conditions: 72 h
NKL (IL-2 2.5 ng/mL) [18] = assay: as above; conditions: 72 h
KAI3 (IL-2 2.5 ng/mL) [19] = assay: as above; conditions: 72 h
IMC-1 (IL-2 20 ng/mL) [20] = assay: as above; conditions: 72 h
[21] = test system: normal primary NK cells, pool 1 (3 donors), resting (IL-2 0 ng/mL); assay: as above; conditions: 72 h
SNK-6 (IL-2 2.5 ng/mL) [22] = assay: as above; conditions: 72 h
[23] = test system: normal primary NK cells, pool 2 (3 donors) (IL-2 2.5 ng/mL); assay: as above; conditions: 72 h
[24] = test system: normal primary NK cells, pool 3 (3 donors) (IL-2 2.5 ng/mL); assay: as above; conditions: 72 h
YT (IL-2 2.5 ng/mL) [25] = assay: as above; conditions: 72 h
KHYG-1 (IL-2 2.5 ng/mL) [26] = assay: as above; conditions: 72 h
NK-YS (IL-2 2.5 ng/mL) [27] = assay: as above; conditions: 72 h
NK-92 (IL-2 2.5 ng/mL) [28] = assay: as above; conditions: 72 h

CNC(=O)c1cccc2cc(Oc3ccnc4cc(OCC5(N)CC5)c(OC)cc34)ccc12 [Lucitanib] (max concentration tested 10000 nM)
percent inhibition of viability [%]
Conditions | 1 nM | 10 nM | 100 nM | 1000 nM | 10000 nM
DERL-7 (IL-2 2.5 ng/mL) [16] | -0.32 | -4.66 | 2.4 | -2.57 | 23.4
IMC-1 (IL-2 20 ng/mL) [20] | -4.99 | 1.11 | 1.41 | 2.72 | 0.85
KAI3 (IL-2 2.5 ng/mL) [19] | -0.3 | -0.75 | -0.45 | 11.7 | 49.6
KHYG-1 (IL-2 2.5 ng/mL) [26] | -3.19 | -3.91 | -0.83 | 10.4 | 70.4
NK-92 (IL-2 2.5 ng/mL) [28] | -12.1 | -11.8 | 3.06 | 13.7 | 83.8
NK-YS (IL-2 2.5 ng/mL) [27] | -6.67 | -4.7 | -0.96 | 9.75 | 65.5
NKL (IL-2 2.5 ng/mL) [18] | 1.05 | 4.31 | 4.24 | -3.6 | 3.06
SNK-6 (IL-2 2.5 ng/mL) [22] | -7.37 | -13.2 | -13.8 | -8.69 | 69.6
YT (IL-2 2.5 ng/mL) [25] | -5.87 | -7.33 | -6.32 | -2.96 | 58.7
[1] | -5.59 | -4.77 | -3.52 | 4.7 | 23.6
[17] | -6.86 | 10.5 | -2.99 | 8.01 | 5.53
[21] | -16.7 | 4.29 | 3.09 | 0.61 | 22.1
[23] | -3.78 | 2.2 | 2.46 | -3.23 | -5
[24] | -7.6 | 0.39 | 3.76 | -6.23 | -5.45

Conditions | drug sensitivity score
DERL-7 (IL-2 2.5 ng/mL) [3] | 0.68
IMC-1 (IL-2 20 ng/mL) [7] | 0
KAI3 (IL-2 2.5 ng/mL) [6] | 4.47
KHYG-1 (IL-2 2.5 ng/mL) [13] | 5.63
NK-92 (IL-2 2.5 ng/mL) [15] | 6.93
NK-YS (IL-2 2.5 ng/mL) [14] | 5.23
NKL (IL-2 2.5 ng/mL) [5] | 0
SNK-6 (IL-2 2.5 ng/mL) [9] | 3.25
YT (IL-2 2.5 ng/mL) [12] | 2.92
[2] | 1.53
[4] | 0
[8] | 0.81
[10] | 0
[11] | 0
